Results on twelve molecules are retold here after paper PMC10107996, “Release of hepatitis B virions is positively regulated by glucose‐regulated protein 78 through direct interaction with preS1” (Journal of Medical Virology, 2022).

The target in one experiment is T1, recombinant GRP78 (Homo sapiens, UniProt P11021).
T1 construct: His; made in house; host or cells: Escherichia coli BL21
Kind of experiment: Isothermal titration calorimetry (ITC) with recombinant GRP78. It counts as binding. On the procedure: Additionally, we collected purified recombinant GRP78 protein (Supporting Information: Figure S2) and HBV‐enveloped particles from the cell supernatant, followed by separation by ultracentrifugation at 4°C for isothermal titration calorimetry (ITC) experiments. […] These findings confirmed the ability of HBV to promote GRP78 expression and identified that GRP78 directly interacts with preS1 and HBV‐enveloped particles.
Affinity constants under equilibrium (Ka) were obtained using a Nano ITC instrument. GRP78 protein solution (300 µL) was titrated with repeated injections of 40 µL solution until saturation at 25 °C. Nano Analyze software was used for the integration of heat signals and nonlinear regression analysis of the data.

For experiment [1], the system named is HBV‐enveloped particle release from HepG2.2.15 cells. The experiment is described as follows: HBV-enveloped particle release and viral DNA content, particle gel assay and qPCR, HepG2.2.15 cells. It counts as cell-based, hepatitis B virus. The settings on record: for inhibition of GRP78-enhanced enveloped‐particle release and viral DNA content: GRP78‐overexpressing HepG2.2.15 cells. The method, then: (§1) HBV virions were identified by particle gel assay.[25] HBV‐producing cells were cultured, followed by harvesting of the culture medium. Cell supernatant was added to 35% PEG8000 and shaken at 4°C for >2 h. The viral particles were dissolved in TNE buffer, incubated overnight at 4°C, and subjected to agarose gel electrophoresis. The samples were transferred to a nitrocellulose membranes, treated with methanol for 30 min, blocked with 5% nonfat milk, and incubated with anti‐preS1 (for enveloped particles) or anti‐HBc (for capsid particles) antibodies for 1 h at 20°C. Following incubation with an antimouse secondary antibody (1:10,000) at 4°C overnight, the membrane was visualized using the an enhanced chemiluminescence western blot detection kit (Beyotime Biotech).

For experiment [2], the system named is HBV‐enveloped particle release from HepAD38 cells. The experiment is described as follows: HBV-enveloped particle release, particle gel assay, HepAD38 cells. It counts as cell-based, hepatitis B virus. The method, then: as §1
Experiment [3] addresses T2, purified recombinant GRP78 protein (human, UniProt P11021 19-654).
T2 construct: source: recombinant, purified
The experiment is described as follows: MST; purified truncated GST-preS1 proteins with GRP78. The following applies: both partners purified.

In experiment [4] the target is T2, purified recombinant GRP78 protein. Kind of experiment: ITC; recombinant GRP78 with preS1 peptides. The settings on record: both partners purified. (In general: In ITC the heat of successive injections is recorded.)
Setting [5] is: synthesized peptide and recombinant GRP78, 25 °C.

Entries after “also recorded” stand apart in the source; their conditions may differ. No end group written: not given here.

T2 sequence (P11021 19-654): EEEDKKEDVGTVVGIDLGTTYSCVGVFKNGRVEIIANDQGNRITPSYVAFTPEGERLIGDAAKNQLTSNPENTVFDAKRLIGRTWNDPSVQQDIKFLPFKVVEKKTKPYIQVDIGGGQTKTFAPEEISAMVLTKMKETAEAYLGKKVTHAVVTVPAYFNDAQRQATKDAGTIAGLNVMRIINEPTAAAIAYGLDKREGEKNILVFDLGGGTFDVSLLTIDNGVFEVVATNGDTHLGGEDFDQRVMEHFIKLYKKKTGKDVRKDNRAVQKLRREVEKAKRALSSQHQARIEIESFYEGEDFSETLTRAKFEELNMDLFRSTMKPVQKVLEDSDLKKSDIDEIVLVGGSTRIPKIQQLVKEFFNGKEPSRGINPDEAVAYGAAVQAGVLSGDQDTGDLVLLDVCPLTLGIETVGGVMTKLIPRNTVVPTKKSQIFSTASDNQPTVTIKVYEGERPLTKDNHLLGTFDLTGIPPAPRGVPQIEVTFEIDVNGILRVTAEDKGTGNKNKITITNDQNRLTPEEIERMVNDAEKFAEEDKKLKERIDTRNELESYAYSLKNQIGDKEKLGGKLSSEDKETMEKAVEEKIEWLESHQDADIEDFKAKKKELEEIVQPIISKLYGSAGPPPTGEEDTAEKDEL
T1 sequence (P11021 19-654): as above

As to “FHSHHNRPMKSP [GBP63, phage-display 12-mer peptide […]]”, on recombinant GRP78 (setting [5]), the “N (sites)” value was determined as 0.248±3.22 sites and the “△H” value stood at 8.83 ± 119 kcal/mol. The matching figures for “GSWNTFRAQPTI [GBP64, phage-display 12-mer peptide […]]”: 2.88±0.501 sites and 0.486 ± 0.186 kcal/mol. As to LTPHKHHKHLHA [GBP65], on recombinant GRP78 (setting [5]), the “N (sites)” value amounted to 10.0±1.05 sites and the “△H” value turned out to be 2.58 ± 0.647 kcal/mol. In the case of “MKAHHSQLYPRH [GBP66, phage-display 12-mer peptide […]]”, on recombinant GRP78 (setting [5]), the “N (sites)” value is reported as 10.0±2.38 sites and the “△H” value was 1.55 ± 0.647 kcal/mol. Take “QPTPISPPLRN [pep60, hydrophobic preS1 peptide 91‐[…]‐102]”: the “inhibition of GRP78-enhanced enveloped‐particle release and viral DNA content” value in experiment [1] (n = 3) is “minimal effects”. For the same molecule, the “interaction with GRP78 in words” value at recombinant GRP78 (25 °C) is given as “weak interaction”. In the case of “SNIGALQFLPPP [GBP67, phage-display 12-mer peptide […]]”, at recombinant GRP78 (setting [5]), the KD result is “negative”, the “N (sites)” value is on record as “negative” and the “△H” value is listed as “negative”.

Regarding VTTVGMPNKSFF [GBP68], the “inhibition of enveloped‐particle release” value in experiment [2] is on record as “dose‐dependent manner”. For the same molecule, the “effect on abundance of cytoplasmic viral particles and core particle release” value in experiment [1] (HepG2.2.15 and HepAD38 cells, particle gel assay with anti‐HBcAg and anti‐preS1 antibodies) is on record as “negligible effects”. Besides, the “inhibitory effect on HBV‐enveloped particle release and viral DNA content in supernatant” value in experiment [1] (HepG2.2.15 cells, particle gel assay with anti‐preS1 antibody and qPCR, n = 3) is “significantly stronger inhibitory effect; also recorded: dose‐dependent manner”. Further, on recombinant GRP78 (setting [5]), the “N (sites)” value came to 5.79±0.738 sites and the “△H” value is 3.49 ± 0.881 kcal/mol. Consider “WDLAWMFRLPVG [pep415, reference compound]”, for which the “inhibition of GRP78-enhanced enveloped‐particle release and viral DNA content” value in experiment [1] (n = 3) is recorded as “inhibited”.

B1: GST-preS1-p3 (residues 66-119) (domain or fragment)
chain: GFTPPHGGLLGWSPQAQGILTTLPAAPPPASTNRQSGRQPTPISPPLRDSHPQA
modifications: also: GST fusion
As to B1, the Kd in experiment [3] was found to be 431 nM.

B2: GST-preS1-p2 (residues 25-90) (domain or fragment)
chain: FPDHQLDPAFGANSNNPDWDFNPNKDHWPEANQVGAGAFGPGFTPPHGGLLGWSPQAQGILTTLPA
modifications: also: GST fusion
Take B2: the Kd in experiment [3] came to 1200 nM.

B3: pep56 (19-DPAFGANSL-29) (peptide)
peptide: DPAFGANSL
notes: also called pepp56; source: designed hydrophobic peptide of preS1
For B3, the Kd in experiment [4] was 6.59 nM.

B4: pep59 (70-QGIMQTVPAN-80) (peptide)
peptide: QGIMQTVPAN
notes: source: designed hydrophobic peptide of preS1
Take B4: the Kd in experiment [4] is 10.6 nM.

For orientation: Kd means the free concentration of one partner at which half of the binding sites on the other are occupied at equilibrium, for simple one-to-one binding.
